Measurements from patent US7642277B2, “Non-nucleoside reverse transcriptase inhibitors” (Boehringer Ingelheim International GmbH, priority 2002, dated 2010).
Read-outs that look alike come from different tables or passages of the source.

Columns and labels:
[1] = molecular target: T1, HIV-1 RT enzyme (wild type) (Human immunodeficiency virus type 1 group M subtype B, UniProt P04585); assay: Reverse transcriptase (RT) enzymatic assay (IC50), PicoGreen fluorescence, wild type; type: biochemical
T1 construct: The reverse transcriptase (RT) enzyme assay has been adapted to a 96-well microtiter plate format
In short: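 Enzyme at ≈10 nM in 50 mM Tris/HCl pH 7.8 with 60 mM NaCl, 2 mM MgCl2, 6 mM DTT, 2 mM GSH, 0.02% Chaps; 15 min preincubation with compound at room temperature, then substrate added and run 50 min at 37 °C. EDTA quench; product DNA read by PicoGreen fluorescence.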

[2] = molecular target: T2, HIV-1 RT resistant mutant K103N/Y181C (Human immunodeficiency virus type 1 group M subtype B, UniProt P04585, K690N/Y768C); assay: Reverse transcriptase (RT) enzymatic assay (IC50), PicoGreen fluorescence, resistant mutant; type: biochemical
T2 construct: The reverse transcriptase (RT) enzyme assay has been adapted to a 96-well microtiter plate format

HIV-1 (wild type) = assay: P24 cellular assay (EC50), data identified with * in Table 9, wild type; type: cell-based
From the text: (§1) P24 Cellular Assay (EC50) (Data Identified with * in Table 9).
(§2) The p24 assay is as described in WO 01/96338, the contents of which are herein incorporated by reference.
(§3) The results are listed in Table 9 as IC50(nM) and EC50 (nM).
(§4) Table legend: A=>100; B=100-50; C=<50; NT=not tested

[3] = test system: HIV-1 resistant mutant K103N/Y181C; assay: P24 cellular assay (EC50), data identified with * in Table 9, resistant mutant; type: cell-based; details: Human immunodeficiency virus 1, read-out: EC50 K103N/Y181C
From the text: as §1, §2, §3, §4

[4] = RT enzymatic assay, wild type, read-out: IC50 WT

Row | SMILES | IC50 [1] | IC50 [2] | EC50 (HIV-1 (wild type); Human immunodeficiency virus 1) | EC50 [3] | IC50 [1, 4] | EC50 (HIV-1 (wild type))
1 | Clc1ccccc1[C@@H]1C[C@H]1CSc1nnnn1-c1cccc2ccccc12 (relative stereo) [Entry 316, trans-5-{{{2-(2-Chlorophenyl)cyclopropyl}methyl}thio}-1-(1-naphthalenyl)-1H-tetrazole] | 50 to 100 nM | > 100 nM | < 50 nM | – | – | –
2 | O=C(CSc1nnnn1-c1cccc2ccccc12)Nc1ccccc1[N+](=O)[O-] [Entry 101, 2-{{1-(1-Naphthalenyl)-1H-tetrazol-5-yl}thio}-N-(2-nitrophenyl)acetamide] | – | – | < 50 nM | > 100 nM | – | –
3 | CN(C)c1ccc(-n2nnnc2SCC(=O)Nc2ccccc2[N+](=O)[O-])c2ccccc12 [Entry 102] | < 50 nM | > 100 nM | < 50 nM | – | – | –
4 | O=C(CSc1nnnn1-c1ccc2ccccc2c1)Nc1ccccc1[N+](=O)[O-] [Entry 103] | < 50 nM | > 100 nM | < 50 nM | > 100 nM | – | –
5 | O=C(CSc1nnnn1-c1ccccc1F)Nc1ccccc1[N+](=O)[O-] [Entry 113] | < 50 nM | > 100 nM | < 50 nM | – | – | –
6 | CSc1ccccc1-n1nnnc1SCC(=O)Nc1ccccc1[N+](=O)[O-] [Entry 116] | < 50 nM | > 100 nM | < 50 nM | – | – | –
7 | COC(=O)c1ccccc1-n1nnnc1SCC(=O)Nc1ccccc1[N+](=O)[O-] [Entry 117] | – | > 100 nM | – | > 100 nM | < 50 nM | –
8 | O=C(CSc1nnnn1-c1cccc(Cl)c1Cl)Nc1ccccc1[N+](=O)[O-] [Entry 123] | – | > 100 nM | – | 50 to 100 nM | < 50 nM | –
9 | Cc1ccc(-n2nnnc2SCC(=O)Nc2ccccc2[N+](=O)[O-])c(Br)c1 [Entry 130] | < 50 nM | > 100 nM | < 50 nM | – | – | –
10 | Cc1cccc(Cl)c1-n1nnnc1SCC(=O)Nc1ccccc1[N+](=O)[O-] [Entry 139] | < 50 nM | > 100 nM | < 50 nM | – | – | –
11 | O=C(CSc1nnnn1-c1cccc2ccccc12)Nc1ccccc1Br [Entry 209] | < 50 nM | – | > 100 nM | – | – | –
12 | O=C(CSc1nnnn1-c1cccc2ccccc12)Nc1ccccc1I [Entry 210] | 50 to 100 nM | – | < 50 nM | > 100 nM | – | –
13 | O=C(CSc1nnnn1-c1cccc2ccccc12)Nc1cccc(F)c1F [Entry 230] | 50 to 100 nM | – | 50 to 100 nM | > 100 nM | – | –
14 | O=C(CSc1nnnn1-c1cccc2ccccc12)Nc1ccc(Cl)cc1Cl [Entry 234] | 50 to 100 nM | – | 50 to 100 nM | > 100 nM | – | –
15 | COC(=O)c1ccc(NC(=O)CSc2nnnn2-c2cccc3ccccc23)c(Cl)c1 [Entry 235] | < 50 nM | > 100 nM | < 50 nM | – | – | –
16 | S=C(CSc1nnnn1-c1cccc2ccccc12)Nc1ccccc1Cl [Entry 308] | > 100 nM | – | 50 to 100 nM | – | – | –
17 | OC(CCSc1nnnn1-c1cccc2ccccc12)c1ccccc1Cl (stereo not shown) [Entry 317, 5-{{3-(2-Chlorophenyl)-3-hydroxypropyl}thio}-1-(1-naphthalenyl)-1H-tetrazole] | 50 to 100 nM | > 100 nM | < 50 nM | – | – | –
18 | OC(CSc1nnnn1-c1cccc2ccccc12)Cc1ccccc1Cl (stereo not shown) [Entry 318, 5-{{3-(2-Chlorophenyl)-2-hydroxypropyl}thio}-1-(1-naphthalenyl)-1H-tetrazole] | 50 to 100 nM | > 100 nM | < 50 nM | – | – | –
19 | OC(CNc1ccccc1Cl)CSc1nnnn1-c1cccc2ccccc12 (stereo not shown) [Entry 330, 5-{{3-{(2-Chlorophenyl)amino}-2-hydroxypropyl}thio}-1-(1-naphthalenyl)-1H-tetrazole] | 50 to 100 nM | > 100 nM | < 50 nM | – | – | –
20 | O=C(CSc1nc(-c2cccc3ccccc23)c[nH]1)Nc1ccccc1[N+](=O)[O-] [Entry 401, 2-{{4-(1-Naphthalenyl)-1H-imidazol-2-yl}thio}-N-(2-nitrophenyl)acetamide] | – | – | – | – | – | < 50 nM
21 | O=C(COc1ccccc1-c1cccc2ccccc12)Nc1ccccc1[N+](=O)[O-] [Entry 409] | – | – | > 100 nM | – | > 100 nM | –
